How the values were obtained:
[1] = molecular target: T1, ERRγ (Homo sapiens, UniProt P62508); test: ERRγ binding
T1 sequence (P62508 1-458): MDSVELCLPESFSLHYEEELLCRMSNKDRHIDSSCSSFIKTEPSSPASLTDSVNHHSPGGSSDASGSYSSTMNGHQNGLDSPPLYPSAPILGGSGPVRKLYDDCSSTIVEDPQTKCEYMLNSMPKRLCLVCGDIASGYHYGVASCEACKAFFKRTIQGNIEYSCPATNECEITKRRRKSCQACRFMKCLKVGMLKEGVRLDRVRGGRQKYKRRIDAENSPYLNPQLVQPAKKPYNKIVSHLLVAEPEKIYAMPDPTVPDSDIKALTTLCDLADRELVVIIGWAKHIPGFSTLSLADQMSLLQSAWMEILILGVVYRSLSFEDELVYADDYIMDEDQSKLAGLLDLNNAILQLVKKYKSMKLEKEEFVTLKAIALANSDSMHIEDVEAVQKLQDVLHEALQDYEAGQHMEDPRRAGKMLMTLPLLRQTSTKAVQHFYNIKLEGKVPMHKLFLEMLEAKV

[2] = molecular target: T1, ERRγ; test: ERRγ functional assay; type: biochemical
[3] = Water solubility; type: physicochemical
[4] = test system: CYP; test: CYP inhibition, all isoforms; type: in vitro ADME
[5] = molecular target: T2, hERG (Homo sapiens, UniProt Q12809); test: hERG binding
T2 sequence (Q12809 whole entry): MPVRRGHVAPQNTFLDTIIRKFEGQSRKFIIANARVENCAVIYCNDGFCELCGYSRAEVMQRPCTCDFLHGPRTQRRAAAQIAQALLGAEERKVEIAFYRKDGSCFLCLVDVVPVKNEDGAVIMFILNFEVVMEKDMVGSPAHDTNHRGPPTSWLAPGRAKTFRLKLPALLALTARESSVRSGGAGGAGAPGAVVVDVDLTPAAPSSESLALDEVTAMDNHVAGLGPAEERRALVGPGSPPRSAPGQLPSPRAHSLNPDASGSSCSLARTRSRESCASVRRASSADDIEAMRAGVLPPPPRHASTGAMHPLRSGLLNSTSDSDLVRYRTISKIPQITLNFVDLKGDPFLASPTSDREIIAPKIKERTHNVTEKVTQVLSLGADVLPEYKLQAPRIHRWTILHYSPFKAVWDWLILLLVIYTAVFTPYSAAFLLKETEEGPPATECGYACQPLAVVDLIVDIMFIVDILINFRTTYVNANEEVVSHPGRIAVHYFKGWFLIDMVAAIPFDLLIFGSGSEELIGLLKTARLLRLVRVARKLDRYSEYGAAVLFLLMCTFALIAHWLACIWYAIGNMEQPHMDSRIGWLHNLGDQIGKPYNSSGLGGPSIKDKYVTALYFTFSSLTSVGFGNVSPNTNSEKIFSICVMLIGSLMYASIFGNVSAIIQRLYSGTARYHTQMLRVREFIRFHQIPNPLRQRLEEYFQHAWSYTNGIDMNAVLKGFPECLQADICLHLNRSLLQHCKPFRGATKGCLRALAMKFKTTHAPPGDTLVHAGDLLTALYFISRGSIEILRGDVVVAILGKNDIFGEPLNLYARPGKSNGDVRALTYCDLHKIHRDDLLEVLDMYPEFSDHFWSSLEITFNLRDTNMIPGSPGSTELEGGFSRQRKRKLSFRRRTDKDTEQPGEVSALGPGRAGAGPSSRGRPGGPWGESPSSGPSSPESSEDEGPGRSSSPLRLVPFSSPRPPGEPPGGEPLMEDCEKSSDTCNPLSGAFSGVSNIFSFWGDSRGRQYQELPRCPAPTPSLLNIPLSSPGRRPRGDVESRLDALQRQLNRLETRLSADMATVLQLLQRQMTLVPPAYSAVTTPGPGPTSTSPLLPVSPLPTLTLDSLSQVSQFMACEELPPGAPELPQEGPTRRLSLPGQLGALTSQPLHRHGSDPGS

[6] = molecular target: T2, hERG; test: hERG current; type: cell-based
[7] = MS (microsomal stability) h; type: in vitro ADME, human
[8] = MS (microsomal stability) d; type: in vitro ADME, dog
[9] = MS (microsomal stability) r; type: in vitro ADME, rat
[10] = MS (microsomal stability) m; type: in vitro ADME, mouse
[11] = Plasma stability h; type: in vitro ADME, human
[12] = Plasma stability r; type: in vitro ADME, rat
[13] = Permeability (PAMPA); type: in vitro ADME; conditions: for Papp: PAMPA
[14] = PK; type: in vivo; conditions: for Cmax / PK BA % / clearance / half-life / Vd: in vivo; for clearance: read-out: PK CL; for half-life: read-out: PK T½ (converted); for Vd: read-out: PK Vss
[15] = Single dose toxicity; conditions: in vivo, read-out: Single dose Tax, LD50
Excerpt: Next, the inventors analyzed the toxicity of these compounds in vivo (Table 3). […]

[16] = test system: Caerulein-induced acute pancreatitis; test: Caerulein-induced model of acute pancreatitis; type: in vivo, mouse; conditions: 20 mg/kg
Description: (§1) • Materials: Caerulein (C9026) and Taurolithocholic acid 3-sulfate disodium salt (TLCS; T0512) was purchased from Sigma. • Animal models: Eight to ten-week male C57BL/6 mice (Jackson Lab) were used according to an animal protocol approved by the Institutional Animal Care and Use Committee of Kyungpook National University. 1. Caerulein-Induced Model of Pancreatitis
Acute pancreatitis (AP) was induced by intraperitoneal injections of caerulein at 50 μg/kg/h given 6 times.
(§2) Upon completion of experiments with above-mentioned animal models (1) and (2), pancreas tissue were snap frozen in liquid nitrogen and stored at −80° C. for analysis of trypsin activity, for protein analysis by Western blots and for gene expression analysis by RT-qPCR. Pancreas were dissected and fixed in 10% neutral-buffered formalin and embedded in paraffin. Five-μm sections were prepared and stained with hematoxylin and eosin (H&E). Pancreas injury was determined by measuring serum amylase (K711-100, Biovision), serum lipase (MAK046, Sigma) and pancreatic tissue trypsin activity (Biovision) was determined using commercially available kit.
Next, the inventors analyzed the efficacy of the compound of Chemical Formula 1 in vivo using two different animal models of acute pancreatitis. […] They pretreated mice with a single dose of compound of Chemical Formula 1, 24 hours prior to Caerulein challenge. An additional dose of compound of Chemical Formula 1 was administered to the animals at the beginning of Caerulein challenge. Upon completion of the experimental timeline, these animals were sacrificed and serum and pancreas tissue samples were collected and analyzed.

[17] = test system: TLCS-induced acute pancreatitis; test: Intraductal bile acid (TLCS) infusion model of pancreatitis; type: in vivo, mouse; conditions: 20 mg/kg
Excerpt: as §1, §2
Upon completion of the experimental timeline, these animals were sacrificed and serum and pancreas tissue samples were collected and analyzed.

[18] = molecular target: ERRα (Homo sapiens, UniProt P11474); test: ERRα binding selectivity
ERRα, sequence (P11474 whole entry): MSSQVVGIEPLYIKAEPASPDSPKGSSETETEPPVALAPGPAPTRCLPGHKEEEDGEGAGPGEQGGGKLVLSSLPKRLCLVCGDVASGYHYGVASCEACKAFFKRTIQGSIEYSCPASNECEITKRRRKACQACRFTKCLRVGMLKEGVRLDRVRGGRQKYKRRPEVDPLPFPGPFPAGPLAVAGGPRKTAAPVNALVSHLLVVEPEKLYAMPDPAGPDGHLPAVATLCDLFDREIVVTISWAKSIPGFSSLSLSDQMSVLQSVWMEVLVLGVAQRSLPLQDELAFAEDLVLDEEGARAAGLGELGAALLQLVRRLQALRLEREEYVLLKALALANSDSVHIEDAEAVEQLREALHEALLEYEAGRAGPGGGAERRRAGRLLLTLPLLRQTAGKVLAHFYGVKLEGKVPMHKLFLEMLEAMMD

[19] = molecular target: ERα (Homo sapiens, UniProt P03372); test: ERα binding selectivity
ERα, sequence (P03372 whole entry): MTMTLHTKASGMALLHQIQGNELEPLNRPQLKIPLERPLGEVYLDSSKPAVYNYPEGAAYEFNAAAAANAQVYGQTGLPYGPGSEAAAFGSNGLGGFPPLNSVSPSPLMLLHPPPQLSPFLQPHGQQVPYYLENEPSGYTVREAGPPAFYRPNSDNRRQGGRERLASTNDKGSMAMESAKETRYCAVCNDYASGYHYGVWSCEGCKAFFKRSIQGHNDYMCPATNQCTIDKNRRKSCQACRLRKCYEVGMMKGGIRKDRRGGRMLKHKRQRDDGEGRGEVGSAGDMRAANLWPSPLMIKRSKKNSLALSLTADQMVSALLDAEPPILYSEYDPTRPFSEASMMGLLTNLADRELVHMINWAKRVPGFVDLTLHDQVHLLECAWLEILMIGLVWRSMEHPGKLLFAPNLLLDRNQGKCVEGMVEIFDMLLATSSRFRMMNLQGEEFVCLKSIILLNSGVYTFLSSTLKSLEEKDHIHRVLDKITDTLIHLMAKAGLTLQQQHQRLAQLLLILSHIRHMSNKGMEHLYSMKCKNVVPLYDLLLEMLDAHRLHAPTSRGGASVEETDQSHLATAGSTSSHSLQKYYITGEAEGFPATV

[20] = molecular target: CYP 1A2 (Homo sapiens, UniProt P05177); test: CYP inhibition 1A2; type: in vitro ADME
CYP 1A2, sequence (P05177 whole entry): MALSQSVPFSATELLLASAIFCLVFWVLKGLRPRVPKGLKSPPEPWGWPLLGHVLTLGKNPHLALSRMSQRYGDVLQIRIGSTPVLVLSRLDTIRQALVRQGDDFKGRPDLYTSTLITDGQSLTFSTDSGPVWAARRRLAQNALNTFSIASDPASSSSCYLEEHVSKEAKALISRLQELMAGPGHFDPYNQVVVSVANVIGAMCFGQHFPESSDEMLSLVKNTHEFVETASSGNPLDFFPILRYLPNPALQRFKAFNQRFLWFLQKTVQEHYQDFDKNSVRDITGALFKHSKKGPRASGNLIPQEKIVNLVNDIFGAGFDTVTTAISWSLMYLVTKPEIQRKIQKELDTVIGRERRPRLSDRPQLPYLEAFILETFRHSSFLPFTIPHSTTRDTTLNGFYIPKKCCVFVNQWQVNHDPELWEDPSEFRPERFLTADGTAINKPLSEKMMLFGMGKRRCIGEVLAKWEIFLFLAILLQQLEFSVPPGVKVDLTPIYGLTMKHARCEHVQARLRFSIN

[21] = molecular target: CYP 2C9 (Homo sapiens, UniProt P11712); test: CYP inhibition 2C9; type: in vitro ADME
CYP 2C9, sequence (P11712 whole entry): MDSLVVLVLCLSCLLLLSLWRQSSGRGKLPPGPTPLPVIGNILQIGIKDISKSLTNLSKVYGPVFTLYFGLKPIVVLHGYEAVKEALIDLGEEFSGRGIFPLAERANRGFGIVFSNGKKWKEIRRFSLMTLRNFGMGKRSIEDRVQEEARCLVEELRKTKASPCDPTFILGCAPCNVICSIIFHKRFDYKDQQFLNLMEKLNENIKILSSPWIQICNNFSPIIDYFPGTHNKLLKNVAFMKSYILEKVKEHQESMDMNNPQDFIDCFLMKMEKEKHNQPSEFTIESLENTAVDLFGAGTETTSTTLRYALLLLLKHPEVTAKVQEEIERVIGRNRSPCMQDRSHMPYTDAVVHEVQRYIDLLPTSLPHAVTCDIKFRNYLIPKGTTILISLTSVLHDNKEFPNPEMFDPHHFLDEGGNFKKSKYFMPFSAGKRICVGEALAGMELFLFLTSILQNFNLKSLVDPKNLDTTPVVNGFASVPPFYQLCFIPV

[22] = molecular target: CYP 2C19 (Homo sapiens, UniProt P33261); test: CYP inhibition 2C19; type: in vitro ADME
CYP 2C19, sequence (P33261 whole entry): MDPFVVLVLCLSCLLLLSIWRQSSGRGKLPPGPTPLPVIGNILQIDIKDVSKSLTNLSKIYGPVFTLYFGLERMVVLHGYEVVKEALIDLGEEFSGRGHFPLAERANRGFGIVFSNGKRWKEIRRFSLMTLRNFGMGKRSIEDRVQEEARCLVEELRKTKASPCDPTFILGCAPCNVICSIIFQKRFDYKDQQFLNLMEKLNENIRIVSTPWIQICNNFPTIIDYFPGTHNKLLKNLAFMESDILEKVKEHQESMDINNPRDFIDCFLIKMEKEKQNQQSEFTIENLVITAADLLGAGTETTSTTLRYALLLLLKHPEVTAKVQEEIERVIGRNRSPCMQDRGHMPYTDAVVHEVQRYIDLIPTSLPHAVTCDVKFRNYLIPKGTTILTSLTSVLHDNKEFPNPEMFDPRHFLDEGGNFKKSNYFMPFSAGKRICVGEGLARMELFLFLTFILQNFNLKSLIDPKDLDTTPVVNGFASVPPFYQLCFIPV

[23] = molecular target: CYP 2D6 (Homo sapiens, UniProt P10635); test: CYP inhibition 2D6; type: in vitro ADME
CYP 2D6, sequence (P10635 whole entry): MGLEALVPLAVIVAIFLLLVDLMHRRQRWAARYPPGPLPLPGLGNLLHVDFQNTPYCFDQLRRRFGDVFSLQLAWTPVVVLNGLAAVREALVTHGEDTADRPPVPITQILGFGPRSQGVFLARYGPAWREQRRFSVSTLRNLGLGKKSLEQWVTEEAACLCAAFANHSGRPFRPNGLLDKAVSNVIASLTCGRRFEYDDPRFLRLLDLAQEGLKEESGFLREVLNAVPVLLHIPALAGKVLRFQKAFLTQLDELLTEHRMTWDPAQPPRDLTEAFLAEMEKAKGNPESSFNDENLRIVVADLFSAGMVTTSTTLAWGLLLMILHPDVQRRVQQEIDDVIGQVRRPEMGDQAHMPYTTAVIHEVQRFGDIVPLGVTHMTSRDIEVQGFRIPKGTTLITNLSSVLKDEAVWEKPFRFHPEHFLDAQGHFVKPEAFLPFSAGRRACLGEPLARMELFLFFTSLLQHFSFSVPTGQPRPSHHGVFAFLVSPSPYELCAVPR

[24] = molecular target: CYP 3A4 (Homo sapiens, UniProt P08684); test: CYP inhibition 3A4; type: in vitro ADME
CYP 3A4, sequence (P08684 whole entry): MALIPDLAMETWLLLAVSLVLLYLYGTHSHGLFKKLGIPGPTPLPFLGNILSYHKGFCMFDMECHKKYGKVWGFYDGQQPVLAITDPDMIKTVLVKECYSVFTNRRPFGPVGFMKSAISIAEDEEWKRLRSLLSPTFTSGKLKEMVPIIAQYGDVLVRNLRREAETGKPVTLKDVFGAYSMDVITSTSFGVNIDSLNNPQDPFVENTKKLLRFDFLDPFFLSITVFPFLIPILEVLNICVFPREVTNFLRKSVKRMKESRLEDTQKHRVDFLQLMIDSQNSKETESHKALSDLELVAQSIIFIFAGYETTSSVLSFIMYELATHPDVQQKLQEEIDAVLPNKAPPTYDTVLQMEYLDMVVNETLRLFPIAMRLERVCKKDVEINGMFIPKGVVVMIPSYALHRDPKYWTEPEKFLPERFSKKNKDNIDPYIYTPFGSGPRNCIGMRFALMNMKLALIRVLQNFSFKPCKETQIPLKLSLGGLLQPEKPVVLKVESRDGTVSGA

Row | CYP (% remaining at 10 μM), All [4] | SMILES | solubility [3] | IC50 [5] | IC50 [6] | MS (% of control) h [7] | MS (% of control) d [8] | MS (% of control) r [9] | MS (% of control) m [10] | Papp [13] | Cmax [14] | PK BA % [14] | clearance [14] | half-life [14] | Vd [14] | PK iv AUC [14] | PK po AUC [14] | LD50 [15] | further results
1 | – | OCCC/C(=C(\c1ccc(O)cc1)c1ccc(C2CCN(C3CC3)CC2)cc1)c1ccccc1 [DMRC200699, (E)-5-(4-hydroxyphenyl)-5-(4-(N-cyclopropylpiperidin-4-yl)phenyl)-4-phenylpent-4-en-1-ol] | > 1000 µg/mL | – | – | – | 92 % of control | 92 % of control | 84 % of control | 0.35 ×10⁻⁶ cm/s | 380 nM | 46% | 68 mL/min/kg | 3 h | 12 L/kg | 0.50 μMh | 2.24 μMh | – | –
2 | OK All >83% | OCCC/C(=C(/c1ccc(C2CCN(C3CC3)CC2)cc1)c1cccc(O)c1)c1ccccc1 [DMRC200966, (E)-5-(5-hydroxyphenyl)-5-(4-(N-cyclopropylpiperidin-4-yl)phenyl)-4-phenylpent-4-en-1-ol] | > 1000 µg/mL | 17 µM | > 30 µM | 62 % of control | 57 % of control | 50 % of control | 25 % of control | 0.014 ×10⁻⁶ cm/s | 1510 nM | 58.2% | 45 mL/min/kg | 1.8 h | 4.6 L/kg | 0.85 μMh | 4.93 μMh | – | IC50 [18]: > 10 µM; IC50 [19]: > 10 µM
3 | – | CC(C)N1CCN(c2ccc(/C(=C(/CCCO)c3ccccc3)c3cccc(O)c3)cc2)CC1 [DMRC2001000, (E)-5-(5-hydroxyphenyl)-5-(4-(4-isopropylpiperazin-1-yl)phenyl)-4-phenylpent-4-en-1-ol] | > 1000 µg/mL | – | – | 65 % of control | 61 % of control | 55 % of control | 27 % of control | – | – | – | – | – | – | 0.99 μMh | 4.18 μMh | > 2000 mg/kg | CYP (% remaining at 10 μM) 1A2 [20]: 100%; CYP (% remaining at 10 μM) 2C9 [21]: 76%; CYP (% remaining at 10 μM) 2C19 [22]: 100%; CYP (% remaining at 10 μM) 2D6 [23]: 66%; CYP (% remaining at 10 μM) 3A4 [24]: 3A4(48) %; Permeability (PAMPA) [13]: 1.29 10^−6 cm/s
4 | OK All >73% | CN(C)CCOc1ccc(/C(=C(/CCCO)c2ccccc2)c2ccc(O)cc2)cc1 [GSK5182, reference compound] | > 1000 µg/mL | – | – | 43 % of control | 10 % of control | 26 % of control | 7 % of control | – | – | 8.4% | 44 mL/min/kg | – | – | 0.89 μMh | 0.68 μMh | – | –

Row | SMILES | CYP (% remaining at 10 μM), All [4] | solubility [3] | IC50 [5] | IC50 [6] | MS (% of control) h [7] | MS (% of control) d [8] | MS (% of control) r [9] | MS (% of control) m [10] | Papp [13] | Cmax [14] | PK BA % [14] | clearance [14] | half-life [14] | Vd [14] | PK iv AUC [14] | PK po AUC [14] | LD50 [15] | further results
5 | CC(C)N1CCN(c2ccc(/C(=C(/CCCO)c3ccccc3)c3ccc(O)cc3)cc2)CC1 [DMRC200434, (E)-5-(4-hydroxyphenyl)-5-(4-(4-isopropylpiperazin-1-yl)phenyl)-4-phenylpent-4-en-1-ol] | OK All >64% | > 1000 µg/mL | > 10 µM | 21.3 µM | 27 % of control | 50 % of control | 33 % of control | 20 % of control | 0.46 ×10⁻⁶ cm/s | 208 nM | 22% | 75 mL/min/kg | 3.7 h | 16 L/kg | 0.42 μMh | 0.82 μMh | > 2000 mg/kg | IC50 [1]: 0.04 µM; IC50 [2]: 0.006 µM; Plasma Stability (% of remaining after 2 h) h [11]: 92.1%; Plasma Stability (% of remaining after 2 h) r [12]: 97.1%; Caerulein-induced acute pancreatitis, overall outcome [16]: rescues mice; Serum amylase ([16]; 24 h before and at start of Caerulein, vs Caerulein alone): dramatic reduction; Pancreatic histopathology (H&E) ([16]; vs Caerulein alone): dramatically improved; Pancreatic tissue trypsin activity ([16]; vs Caerulein alone): dramatic reduction; Serum lipase ([16]; vs Caerulein alone): dramatic reduction; Sodium Taurocholate-induced acute pancreatitis, overall outcome [17]: rescues mice
